The values that follow come from PMC4872749, “EM23, a natural sesquiterpene lactone, targets thioredoxin reductase to activate JNK and cell death pathways in human cervical cancer cells” (Oncotarget, 2016).

A word on the IC50: it is the midpoint of a concentration-inhibition curve. A higher IC50 goes with a need for much substance.

Molecules are shown by their SMILES.

In this assay the target is T1, thioredoxin reductase (TrxR) (Sus scrofa, UniProt Q9MYY8).
T1 construct: gene TXNRD1; TrxR purified from porcine brains
T1 sequence (Q9MYY8 1-499): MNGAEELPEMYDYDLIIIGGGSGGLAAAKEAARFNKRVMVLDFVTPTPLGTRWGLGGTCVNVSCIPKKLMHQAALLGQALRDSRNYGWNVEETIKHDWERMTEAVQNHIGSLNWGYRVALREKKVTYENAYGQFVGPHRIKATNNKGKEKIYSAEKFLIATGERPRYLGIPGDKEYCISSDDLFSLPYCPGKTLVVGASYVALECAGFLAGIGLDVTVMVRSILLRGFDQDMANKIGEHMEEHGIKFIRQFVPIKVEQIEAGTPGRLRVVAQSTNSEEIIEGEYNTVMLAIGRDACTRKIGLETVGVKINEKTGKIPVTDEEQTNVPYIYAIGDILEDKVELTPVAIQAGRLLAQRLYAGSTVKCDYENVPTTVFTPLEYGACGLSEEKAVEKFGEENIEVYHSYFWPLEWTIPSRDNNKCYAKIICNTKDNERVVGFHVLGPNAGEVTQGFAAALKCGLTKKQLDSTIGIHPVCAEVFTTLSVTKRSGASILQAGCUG
Description: DTNB reduction assay with purified NADPH-reduced TrxR; supported by BIAM labeling and TOF LC/MS of C-terminal tetrapeptide adduct. In kind it is biochemical.

Compound `C=C(C)C(=O)OC1CC(C)=CC2(OC)C=C(C)C(O2)C2OC(=O)C(=C)C12` (stereo not shown) [EM23] returned an IC50 of 7.8 µM.
